The values below come from publication PMC12221116, “Novel Quinazolinones Active against Multidrug‐Resistant Mycobacterium Tuberculosis: Synthesis, Antimicrobial Evaluation, and in Silico Exploration of Penicillin‐Binding Protein 1A as a Potential Target” (Chemmedchem, 2025).

What all share (experiment): microbe, parasite or virus in culture
Holding throughout (assay type): cell-based, Mycobacterium tuberculosis

In assay [1] the test system is Mtb IZAK. As to conditions: for MIC: Mycobacterium tuberculosis, read-out: MIC Mtb IZAK.
Assay [2] concerns Mtb MATI. As to conditions: for MIC: Mycobacterium tuberculosis, read-out: MIC Mtb MATI.
Assay [3] concerns Mtb SORO. The conditions noted are these: for MIC: Mycobacterium tuberculosis, read-out: MIC Mtb SORO.
Assay [4] concerns Mtb TIAS. The conditions noted are these: for MIC: Mycobacterium tuberculosis, read-out: MIC Mtb TIAS.
Assay [5] concerns Mtb YAGY. The conditions noted are these: for MIC: Mycobacterium tuberculosis, read-out: MIC Mtb YAGY.
Assay [6] deals with Mtb TURZ. The conditions noted are these: for MIC: Mycobacterium tuberculosis, read-out: MIC Mtb TURZ.
Assay [7] deals with Mtb IZAK. As to conditions: for Susceptible/resistant Mtb IZAK: CLSI methodology; for MIC: Mycobacterium tuberculosis, read-out: MIC, susceptibility pattern Mtb IZAK.
Assay [8] deals with Mtb MATI. The conditions noted are these: for Susceptible/resistant Mtb MATI: CLSI methodology; for MIC: Mycobacterium tuberculosis, read-out: MIC, susceptibility pattern Mtb MATI.
Assay [9] has as its system Mtb SORO. As to conditions: for Susceptible/resistant Mtb SORO: CLSI methodology; for MIC: Mycobacterium tuberculosis, read-out: MIC, susceptibility pattern Mtb SORO.
Assay [10] deals with Mtb TIAS. The conditions noted are these: for Susceptible/resistant Mtb TIAS: CLSI methodology; for MIC: Mycobacterium tuberculosis, read-out: MIC, susceptibility pattern Mtb TIAS.
The subject of assay [11] is Mtb YAGY. The conditions noted are these: for Susceptible/resistant Mtb YAGY: CLSI methodology; for MIC: Mycobacterium tuberculosis, read-out: MIC, susceptibility pattern Mtb YAGY.
The subject of assay [12] is Mtb TURZ. The conditions noted are these: for Susceptible/resistant Mtb TURZ: CLSI methodology; for MIC: Mycobacterium tuberculosis, read-out: MIC, susceptibility pattern Mtb TURZ.
Where [13] appears, read: drug-resistant clinical isolate.
The mark [14] stands for this setting: mycobacteria growth indicator tube (MGIT), concentration 100 mg/l.

Each structure is given as a SMILES string. Values after ≈ are worked out from the molar mass of the structure shown. Where two headings read alike, the source gives them in different places.

Take `Cc1nc2ccccc2c(=O)n1Cc1cccc(Cl)c1` [Compound 6]: the “MIC Mtb IZAK” value in assay [1] (setting [13]) is >100 µg/mL. Besides, the “MIC Mtb MATI” value in [2] (setting [13]) came to 50 µg/mL (≈ 176 µM). Also, the “MIC Mtb SORO” value in [3] (setting [13]) is 25 µg/mL (≈ 87.8 µM). Also, the “MIC Mtb TIAS” value in [4] (setting [13]) turned out to be 25 µg/mL (≈ 87.8 µM). Also, in assay [5] (setting [13]), the “MIC Mtb YAGY” value is 12.5 µg/mL (≈ 43.9 µM). Besides, in [6] (setting [13]), the “MIC Mtb TURZ” value was determined as 25 µg/mL (≈ 87.8 µM).

Consider `COc1ccc(Cn2c(C)nc3cc(Cl)ccc3c2=O)cc1` [Compound 17], for which the MIC in [1], in [2], in assay [3], in [4], in assay [5] and in assay [6] was 12.5 µg/mL (≈ 39.7 µM) in each case.

In the case of `Cc1nc2cc(Cl)ccc2c(=O)n1Cc1ccc(F)cc1` [Compound 19], the MIC is > 50 µg/mL in assay [1]; > 50 µg/mL in [2]; > 50 µg/mL in assay [3]; 12.5 µg/mL (≈ 41.3 µM) in assay [4]; 12.5 µg/mL (≈ 41.3 µM) in assay [5]; 12.5 µg/mL (≈ 41.3 µM) in [6].

In the case of `Cc1nc2cc(Cl)ccc2c(=O)n1Cc1cccc(Cl)c1` [Compound 21], the MIC in assay [1] is > 100 µg/mL; in assay [2] it was > 100 µg/mL; in [3], > 100 µg/mL; in assay [4], 12.5 µg/mL (≈ 39.2 µM); in assay [5] it was 12.5 µg/mL (≈ 39.2 µM); in assay [6] it was 12.5 µg/mL (≈ 39.2 µM).

Take `Cc1nc2cc(Cl)ccc2c(=O)n1Cc1ccc(Cl)c(Cl)c1` [Compound 24]: the MIC in [1] is > 100 µg/mL; in assay [2], > 100 µg/mL; in [3], 100 µg/mL (≈ 283 µM); in assay [4], 6.25 µg/mL (≈ 17.7 µM); in assay [5], 6.25 µg/mL (≈ 17.7 µM); in assay [6] it was 6.25 µg/mL (≈ 17.7 µM).

For the compound `Cc1nc2cc(Cl)ccc2c(=O)n1/N=C/c1ccc(O)c([N+](=O)[O-])c1` [Compound 25], the MIC in assay [1] was > 25 µg/mL; in assay [2] it was 12.5 µg/mL (≈ 34.8 µM); in assay [3] it was 12.5 µg/mL (≈ 34.8 µM); in assay [4], 25 µg/mL (≈ 69.7 µM); in assay [5], 6.25 µg/mL (≈ 17.4 µM); in assay [6], 25 µg/mL (≈ 69.7 µM).

For the compound `NNC(=O)c1ccncc1` [INH, isoniazid, reference compound], the MIC in assay [1], in assay [2], in [3], in assay [4], in assay [5] and in assay [6] was > 100 µg/mL throughout. Besides, the MIC was 4 µg/mL (≈ 29.2 µM) in assay [7]; > 8 µg/mL in [8]; 4 µg/mL (≈ 29.2 µM) in [9]; > 8 µg/mL in assay [10]; 4 µg/mL (≈ 29.2 µM) in assay [11]; > 8 µg/mL in assay [12]. Moreover, the “Susceptible/resistant Mtb IZAK” value in assay [7] is “R”. In addition, the “Susceptible/resistant Mtb MATI” value in [8] is “R”. Moreover, the “Susceptible/resistant Mtb SORO” value in assay [9] is on record as “R”. For the same compound, in [10], the “Susceptible/resistant Mtb TIAS” value was “R”. Besides, the “Susceptible/resistant Mtb YAGY” value in assay [11] is “R”. The “Susceptible/resistant Mtb TURZ” value in [12] was “R”.

Regarding `CO[C@H]1/C=C/O[C@@]2(C)Oc3c(C)c(O)c4c(O)c(c(/C=N/N5CCN(C)CC5)c(O)c4c3C2=O)NC(=O)/C(C)=C\C=C\[C@H](C)[C@H](O)[C@@H](C)[C@@H](O)[C@@H](C)[C@H](OC(C)=O)[C@@H]1C` [RIF, rifampicin], in assay [7], the “Susceptible/resistant Mtb IZAK” value was “R” and the MIC was > 8 µg/mL. In [8], the “Susceptible/resistant Mtb MATI” value is “R” and the MIC is > 8 µg/mL. Also, in assay [9], the “Susceptible/resistant Mtb SORO” value is recorded as “S” and the MIC came to 0.125 µg/mL (≈ 0.152 µM). Further, in [10], the “Susceptible/resistant Mtb TIAS” value is “S” and the MIC amounted to 0.125 µg/mL (≈ 0.152 µM). In addition, in [11], the “Susceptible/resistant Mtb YAGY” value is on record as “R” and the MIC was 8 µg/mL (≈ 9.72 µM). In [12], the “Susceptible/resistant Mtb TURZ” value is recorded as “R” and the MIC was > 8 µg/mL.

Regarding `NCC[C@H](O)C(=O)N[C@@H]1C[C@H](N)[C@@H](O[C@H]2O[C@H](CN)[C@@H](O)[C@H](O)[C@H]2O)[C@H](O)[C@H]1O[C@H]1O[C@H](CO)[C@@H](O)[C@H](N)[C@H]1O` [amikacin], in assay [9], the “Susceptible/resistant Mtb SORO” value was “S” and the MIC worked out at 1 µg/mL (≈ 1.71 µM). In assay [10], the “Susceptible/resistant Mtb TIAS” value is given as “S” and the MIC stood at 1 µg/mL (≈ 1.71 µM). In addition, in assay [11], the “Susceptible/resistant Mtb YAGY” value is on record as “R” and the MIC was > 64 µg/mL. In assay [12], the “Susceptible/resistant Mtb TURZ” value is given as “S” and the MIC worked out at 0.5 µg/mL (≈ 0.854 µM).

As for `CC(C)/N=c1\cc2n(-c3ccc(Cl)cc3)c3ccccc3nc-2cc1Nc1ccc(Cl)cc1` [clofazimine], in assay [9], the “Susceptible/resistant Mtb SORO” value is reported as “S” and the MIC came to 0.25 µg/mL (≈ 0.528 µM).

Turning to `CC[C@@H](CO)NCCN[C@@H](CC)CO` [ethambutol], in assay [7], the “Susceptible/resistant Mtb IZAK” value is “S” and the MIC came to 0.5 µg/mL (≈ 2.45 µM). In [8], the “Susceptible/resistant Mtb MATI” value is “S” and the MIC amounted to 0.5 µg/mL (≈ 2.45 µM). In assay [9], the “Susceptible/resistant Mtb SORO” value was “R” and the MIC was 2 µg/mL (≈ 9.79 µM). Also, in assay [10], the “Susceptible/resistant Mtb TIAS” value is given as “R” and the MIC worked out at 1 µg/mL (≈ 4.89 µM). In assay [11], the “Susceptible/resistant Mtb YAGY” value is recorded as “R” and the MIC was 4 µg/mL (≈ 19.6 µM). In addition, in [12], the “Susceptible/resistant Mtb TURZ” value is “R” and the MIC stood at 1 µg/mL (≈ 4.89 µM).

On to `COc1c(N2C[C@@H]3CCCN[C@@H]3C2)c(F)cc2c(=O)c(C(=O)O)cn(C3CC3)c12` [moxifloxacin], for which, in assay [9], the “Susceptible/resistant Mtb SORO” value was “S” and the MIC is 0.25 µg/mL (≈ 0.623 µM). For the same compound, in assay [10], the “Susceptible/resistant Mtb TIAS” value was “S” and the MIC came to 0.25 µg/mL (≈ 0.623 µM). Besides, in assay [11], the “Susceptible/resistant Mtb YAGY” value is “S” and the MIC was 0.25 µg/mL (≈ 0.623 µM). For the same compound, in assay [12], the “Susceptible/resistant Mtb TURZ” value is reported as “S” and the MIC stood at 0.25 µg/mL (≈ 0.623 µM).

Turning to `NC(=O)c1cnccn1` [pyrazinamide], in assay [7], the “Susceptible/resistant Mtb IZAK” value is “R” and the MIC was > 16 µg/mL. In assay [8], the “Susceptible/resistant Mtb MATI” value is listed as “R” and the MIC is > 128 µg/mL. For the same compound, the “Susceptible/resistant Mtb SORO (MGIT)” value in [9] (setting [14]) was “S ^b)”. In addition, in assay [10] (setting [14]), the “Susceptible/resistant Mtb TIAS (MGIT)” value is “S ^b)”. The “Susceptible/resistant Mtb YAGY (MGIT)” value in assay [11] (setting [14]) is listed as “R ^b)”. The “Susceptible/resistant Mtb TURZ (MGIT)” value in assay [12] (setting [14]) is on record as “S ^b)”.

Consider `[H]/N=C(/N)N[C@H]1[C@H](O)[C@@H](O)[C@H](O[C@@H]2O[C@@H](C)[C@](O)(C=O)[C@H]2O[C@@H]2O[C@@H](CO)[C@H](O)[C@@H](O)[C@@H]2NC)[C@@H](N/C(N)=N\[H])[C@@H]1O` [streptomycin], for which, in assay [7], the “Susceptible/resistant Mtb IZAK” value was “R” and the MIC came to 4 µg/mL (≈ 6.88 µM). Moreover, in assay [8], the “Susceptible/resistant Mtb MATI” value is listed as “R” and the MIC is > 16 µg/mL. Further, in [9], the “Susceptible/resistant Mtb SORO” value is on record as “R” and the MIC was found to be 4 µg/mL (≈ 6.88 µM). For the same compound, in [10], the “Susceptible/resistant Mtb TIAS” value was “R” and the MIC amounted to 4 µg/mL (≈ 6.88 µM). Further, in assay [11], the “Susceptible/resistant Mtb YAGY” value is recorded as “R” and the MIC is > 16 µg/mL. In assay [12], the “Susceptible/resistant Mtb TURZ” value is recorded as “R” and the MIC is 16 µg/mL (≈ 27.5 µM).
